Results as given in ChEMBL document CHEMBL5465560, “Selectivity Literature for EUbOPEN Chemogenomic Library” (2024).

Tests used:
[1] = molecular target: Tyrosine-protein kinase SYK (Homo sapiens, UniProt P43405); test: Selectivity interaction (KinaseProfiler screening (Millipore)) EUB0000601a SYK; details: at 3 µM
[2] = molecular target: Calcium/calmodulin-dependent protein kinase type II subunit beta (Homo sapiens) (UniProt Q13554); details: at 10 µM
[3] = molecular target: T1, Serine/threonine-protein kinase BRSK2 (Homo sapiens) (UniProt Q8IWQ3); details: at 10 µM
T1 sequence (whole entry): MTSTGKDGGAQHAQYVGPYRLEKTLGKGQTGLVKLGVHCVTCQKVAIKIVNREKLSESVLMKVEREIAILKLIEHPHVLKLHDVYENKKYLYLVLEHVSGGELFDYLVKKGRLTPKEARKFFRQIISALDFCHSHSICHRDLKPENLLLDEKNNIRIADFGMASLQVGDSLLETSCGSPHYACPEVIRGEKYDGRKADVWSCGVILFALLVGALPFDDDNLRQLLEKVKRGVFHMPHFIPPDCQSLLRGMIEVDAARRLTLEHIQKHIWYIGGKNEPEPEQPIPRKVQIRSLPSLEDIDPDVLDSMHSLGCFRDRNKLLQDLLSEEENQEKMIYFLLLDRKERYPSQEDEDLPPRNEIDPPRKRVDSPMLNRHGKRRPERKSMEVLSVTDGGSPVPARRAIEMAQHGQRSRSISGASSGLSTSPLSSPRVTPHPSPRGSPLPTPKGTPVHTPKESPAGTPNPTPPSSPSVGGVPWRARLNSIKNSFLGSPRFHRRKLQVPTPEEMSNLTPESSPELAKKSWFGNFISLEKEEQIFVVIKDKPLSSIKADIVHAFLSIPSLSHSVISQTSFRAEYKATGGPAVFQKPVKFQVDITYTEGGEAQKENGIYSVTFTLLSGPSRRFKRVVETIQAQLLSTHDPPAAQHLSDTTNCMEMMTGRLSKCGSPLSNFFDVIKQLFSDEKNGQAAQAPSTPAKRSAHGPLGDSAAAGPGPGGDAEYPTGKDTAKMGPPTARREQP

[4] = molecular target: Serine/threonine-protein kinase 25 (Homo sapiens) (UniProt O00506); test: Selectivity interaction (Ambit KINOMEscan and KiNATiv profiling in Jurkat cells) EUB0000090b STK25; type: cell-based; details: at 1 µM
[5] = molecular target: Homeodomain-interacting protein kinase 2 (Homo sapiens, UniProt Q9H2X6); test: Selectivity interaction (KinomeScan (DiscoverX)) EUB0000655a HIPK2; details: at 10 µM
[6] = molecular target: Cyclin-dependent kinase 15 (Homo sapiens) (UniProt Q96Q40); test: Selectivity interaction (KinomeScan (DiscoverX)) EUB0000607a CDK15; details: at 10 µM
[7] = molecular target: Eukaryotic translation initiation factor 2-alpha kinase 1 (Homo sapiens) (UniProt Q9BQI3); test: Selectivity interaction (KinomeScan (DiscoverX)) EUB0001619a EIF2AK1; details: at 1 µM
[8] = molecular target: Protein-tyrosine kinase 2-beta (Homo sapiens) (UniProt Q14289); test: Selectivity interaction (KinomeScan (DiscoverX)) EUB0000595a PTK2B; details: at 10 µM
[9] = molecular target: AP2-associated protein kinase 1 (Homo sapiens, UniProt Q2M2I8); test: Selectivity interaction (KinomeScan (DiscoverX)) EUB0000595a AAK1; details: at 10 µM
[10] = molecular target: Activin receptor type-2A (Homo sapiens) (UniProt P27037); details: at 10 µM
[11] = molecular target: Ribosomal protein S6 kinase alpha-3 (Homo sapiens, UniProt P51812); test: Selectivity interaction (ActivX KiNativ screen (kinase selectivity in THP-1 cell lysates)) EUB0000639a RPS6KA3; type: subcellular; details: lysate, at 5 µM
[12] = molecular target: eIF-2-alpha kinase GCN2 (Homo sapiens) (UniProt Q9P2K8); test: Selectivity interaction (ActivX KiNativ screen (kinase selectivity in THP-1 cell lysates)) EUB0000639a EIF2AK4; type: subcellular; details: lysate, at 0.04 µM
[13] = molecular target: Calcium/calmodulin-dependent protein kinase type 1D (Homo sapiens) (UniProt Q8IU85); test: Selectivity interaction (ActivX KiNativ screen (kinase selectivity in THP-1 cell lysates)) EUB0000639a CAMK1D; type: subcellular; details: lysate
[14] = molecular target: Casein kinase I isoform gamma-2 (Homo sapiens) (UniProt P78368); test: Selectivity interaction (Kinase panel (Invitrogen)) EUB0000639a CSNK1G2; details: at 200 nM
[15] = molecular target: Tyrosine-protein kinase ABL2 (Homo sapiens, UniProt P42684); test: Selectivity interaction (ActivX KiNativ screen (kinase selectivity in THP-1 cell lysates)) EUB0000639a ABL2; type: subcellular; details: lysate, at 0.04 µM
[16] = system: Proto-oncogene tyrosine-protein kinase receptor Ret (Homo sapiens), P07949 [V804M]; test: (§1) Selectivity interaction (KinomeScan (DiscoverX)) EUB0000229b RET; details: at 1 µM
[17] = system: Proto-oncogene tyrosine-protein kinase receptor Ret (Homo sapiens), P07949 [V804L]; test: as §1; details: at 1 µM
[18] = system: Proto-oncogene tyrosine-protein kinase receptor Ret (Homo sapiens), P07949 [M918T]; test: as §1; details: at 1 µM
[19] = molecular target: Proto-oncogene tyrosine-protein kinase receptor Ret (Homo sapiens, UniProt P07949); test: as §1; details: at 10 µM
[20] = molecular target: Tyrosine-protein kinase Lck (Homo sapiens, UniProt P06239); test: Selectivity interaction (KinomeScan (DiscoverX)) EUB0000229b LCK; details: at 10 µM
Insulin receptor = Insulin receptor (Homo sapiens, UniProt P06213); test: Selectivity interaction (Kinase panel (33PanQinase(R) Activity Assay)) EUB0000877a INSR
Focal adhesion kinase 1 = Focal adhesion kinase 1 (Homo sapiens, UniProt Q05397); test: Selectivity interaction (Kinase panel (Z-LYTE Assay)) EUB0001632a PTK2; details: at 10 µM
[21] = molecular target: T2, Serine/threonine-protein kinase Nek3 (Homo sapiens) (UniProt P51956); test: Selectivity interaction (KinomeScan (DiscoverX)) EUB0000695a NEK3; details: at 100 nM
T2 sequence (whole entry): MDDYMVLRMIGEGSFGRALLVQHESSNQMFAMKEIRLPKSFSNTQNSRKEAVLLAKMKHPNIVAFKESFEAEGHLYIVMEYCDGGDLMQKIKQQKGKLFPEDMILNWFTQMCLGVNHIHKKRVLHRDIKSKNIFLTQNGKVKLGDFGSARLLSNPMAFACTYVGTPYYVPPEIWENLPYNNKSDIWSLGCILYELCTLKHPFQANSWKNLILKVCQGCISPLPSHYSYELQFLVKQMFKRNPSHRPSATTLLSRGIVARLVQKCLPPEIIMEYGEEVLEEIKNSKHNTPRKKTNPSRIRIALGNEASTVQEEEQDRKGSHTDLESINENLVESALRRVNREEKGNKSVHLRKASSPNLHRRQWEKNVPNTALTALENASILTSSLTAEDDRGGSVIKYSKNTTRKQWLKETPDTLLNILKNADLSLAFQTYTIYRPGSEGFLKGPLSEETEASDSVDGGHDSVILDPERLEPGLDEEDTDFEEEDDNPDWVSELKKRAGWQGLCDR

Sequence of Calcium/calmodulin-dependent protein kinase type 1D (Homo sapiens) (Q8IU85 whole entry, looked up, canonical isoform): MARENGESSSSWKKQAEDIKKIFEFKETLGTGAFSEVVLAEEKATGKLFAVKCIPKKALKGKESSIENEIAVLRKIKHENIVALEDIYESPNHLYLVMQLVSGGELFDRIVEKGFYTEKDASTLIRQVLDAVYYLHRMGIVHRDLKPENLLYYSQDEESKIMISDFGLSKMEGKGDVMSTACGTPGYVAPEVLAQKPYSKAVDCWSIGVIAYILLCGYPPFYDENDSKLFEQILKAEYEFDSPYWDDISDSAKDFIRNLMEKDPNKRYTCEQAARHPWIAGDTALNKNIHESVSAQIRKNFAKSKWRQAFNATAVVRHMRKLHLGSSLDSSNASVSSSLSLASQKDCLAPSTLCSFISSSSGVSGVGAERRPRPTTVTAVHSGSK
Sequence of Proto-oncogene tyrosine-protein kinase receptor Ret (Homo sapiens), P07949 [M918T] (P07949 whole entry M918T): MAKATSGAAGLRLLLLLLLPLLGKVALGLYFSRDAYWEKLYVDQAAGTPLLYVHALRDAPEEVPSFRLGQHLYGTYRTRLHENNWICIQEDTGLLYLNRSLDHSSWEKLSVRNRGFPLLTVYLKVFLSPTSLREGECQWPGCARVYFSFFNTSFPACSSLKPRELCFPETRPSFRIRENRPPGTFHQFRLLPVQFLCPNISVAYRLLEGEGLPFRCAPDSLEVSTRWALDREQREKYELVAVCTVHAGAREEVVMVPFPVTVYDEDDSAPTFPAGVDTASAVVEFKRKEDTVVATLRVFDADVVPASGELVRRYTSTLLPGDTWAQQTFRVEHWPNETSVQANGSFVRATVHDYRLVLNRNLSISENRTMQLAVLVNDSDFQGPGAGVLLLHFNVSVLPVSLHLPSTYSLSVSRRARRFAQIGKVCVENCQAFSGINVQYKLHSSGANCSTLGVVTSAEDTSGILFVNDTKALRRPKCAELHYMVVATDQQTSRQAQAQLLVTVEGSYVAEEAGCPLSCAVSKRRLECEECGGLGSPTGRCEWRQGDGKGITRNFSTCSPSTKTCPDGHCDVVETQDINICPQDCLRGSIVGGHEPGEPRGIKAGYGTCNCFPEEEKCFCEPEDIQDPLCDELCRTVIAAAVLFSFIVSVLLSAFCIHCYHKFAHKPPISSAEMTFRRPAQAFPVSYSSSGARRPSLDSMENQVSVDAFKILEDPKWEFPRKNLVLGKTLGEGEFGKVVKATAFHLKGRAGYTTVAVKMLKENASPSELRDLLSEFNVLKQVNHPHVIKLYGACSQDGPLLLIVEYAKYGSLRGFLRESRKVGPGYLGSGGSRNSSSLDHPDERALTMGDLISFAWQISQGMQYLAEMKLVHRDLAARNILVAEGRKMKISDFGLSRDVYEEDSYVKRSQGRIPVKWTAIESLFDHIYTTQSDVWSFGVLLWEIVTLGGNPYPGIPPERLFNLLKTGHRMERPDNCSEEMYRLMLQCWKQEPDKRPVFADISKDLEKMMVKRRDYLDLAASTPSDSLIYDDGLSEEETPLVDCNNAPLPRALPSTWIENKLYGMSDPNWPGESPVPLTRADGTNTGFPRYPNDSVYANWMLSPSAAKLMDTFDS
Sequence of Tyrosine-protein kinase Lck (P06239 2-509 limits assumed): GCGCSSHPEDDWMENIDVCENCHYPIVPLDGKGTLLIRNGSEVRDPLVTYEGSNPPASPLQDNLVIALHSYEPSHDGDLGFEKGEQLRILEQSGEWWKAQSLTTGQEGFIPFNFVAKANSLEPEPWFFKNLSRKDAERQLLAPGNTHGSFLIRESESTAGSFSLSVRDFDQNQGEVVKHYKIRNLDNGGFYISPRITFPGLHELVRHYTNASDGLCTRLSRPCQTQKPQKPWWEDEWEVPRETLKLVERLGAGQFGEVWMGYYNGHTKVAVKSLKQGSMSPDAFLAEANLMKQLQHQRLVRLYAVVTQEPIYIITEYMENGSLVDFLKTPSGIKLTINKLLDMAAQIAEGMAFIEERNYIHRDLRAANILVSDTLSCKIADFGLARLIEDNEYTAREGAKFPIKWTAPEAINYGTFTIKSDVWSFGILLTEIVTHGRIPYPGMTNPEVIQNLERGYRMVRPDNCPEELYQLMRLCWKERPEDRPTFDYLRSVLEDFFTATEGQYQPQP
Sequence of Proto-oncogene tyrosine-protein kinase receptor Ret (P07949 whole entry): as the sequence (P07949 whole entry M918T) above, with T918M counted along it
Sequence of Insulin receptor (P06213 28-758 limits assumed): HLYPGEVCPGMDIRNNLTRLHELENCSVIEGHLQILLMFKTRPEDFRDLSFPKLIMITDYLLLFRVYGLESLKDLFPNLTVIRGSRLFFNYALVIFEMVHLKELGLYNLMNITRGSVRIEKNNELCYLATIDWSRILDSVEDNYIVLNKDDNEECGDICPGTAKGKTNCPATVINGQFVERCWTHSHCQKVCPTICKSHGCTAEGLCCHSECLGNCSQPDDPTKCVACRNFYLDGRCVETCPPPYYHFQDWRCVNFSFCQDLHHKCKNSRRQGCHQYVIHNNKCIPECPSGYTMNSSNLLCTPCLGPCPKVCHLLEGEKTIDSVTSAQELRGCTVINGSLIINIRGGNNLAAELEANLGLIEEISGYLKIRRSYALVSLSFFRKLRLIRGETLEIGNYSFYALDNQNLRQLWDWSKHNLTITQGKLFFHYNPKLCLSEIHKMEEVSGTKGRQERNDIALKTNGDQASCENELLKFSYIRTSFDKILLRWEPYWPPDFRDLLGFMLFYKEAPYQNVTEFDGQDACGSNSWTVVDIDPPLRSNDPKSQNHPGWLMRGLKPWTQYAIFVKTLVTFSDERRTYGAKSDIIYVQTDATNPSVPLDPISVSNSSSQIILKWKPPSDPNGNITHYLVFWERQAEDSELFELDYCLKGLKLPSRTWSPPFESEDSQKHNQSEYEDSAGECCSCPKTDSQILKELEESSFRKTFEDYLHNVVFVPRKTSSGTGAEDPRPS
Sequence of Insulin receptor (P06213 763-1382 limits assumed): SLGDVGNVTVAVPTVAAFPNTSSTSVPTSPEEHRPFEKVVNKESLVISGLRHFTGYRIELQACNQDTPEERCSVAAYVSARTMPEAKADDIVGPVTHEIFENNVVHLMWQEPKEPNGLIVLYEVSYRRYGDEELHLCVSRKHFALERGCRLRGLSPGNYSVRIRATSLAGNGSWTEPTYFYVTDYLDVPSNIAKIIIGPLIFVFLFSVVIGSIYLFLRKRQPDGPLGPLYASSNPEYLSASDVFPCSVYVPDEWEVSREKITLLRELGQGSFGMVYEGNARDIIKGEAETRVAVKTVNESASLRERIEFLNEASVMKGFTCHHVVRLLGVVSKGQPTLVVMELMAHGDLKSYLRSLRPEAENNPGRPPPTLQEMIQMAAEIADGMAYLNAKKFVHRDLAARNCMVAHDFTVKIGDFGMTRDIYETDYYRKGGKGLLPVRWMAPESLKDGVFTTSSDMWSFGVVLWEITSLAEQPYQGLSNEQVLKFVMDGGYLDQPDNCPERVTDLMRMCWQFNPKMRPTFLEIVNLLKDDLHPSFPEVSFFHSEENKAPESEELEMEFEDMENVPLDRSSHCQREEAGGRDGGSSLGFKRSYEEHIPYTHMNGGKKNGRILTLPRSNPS
Sequence of Casein kinase I isoform gamma-2 (Homo sapiens) (P78368 whole entry, looked up, canonical isoform): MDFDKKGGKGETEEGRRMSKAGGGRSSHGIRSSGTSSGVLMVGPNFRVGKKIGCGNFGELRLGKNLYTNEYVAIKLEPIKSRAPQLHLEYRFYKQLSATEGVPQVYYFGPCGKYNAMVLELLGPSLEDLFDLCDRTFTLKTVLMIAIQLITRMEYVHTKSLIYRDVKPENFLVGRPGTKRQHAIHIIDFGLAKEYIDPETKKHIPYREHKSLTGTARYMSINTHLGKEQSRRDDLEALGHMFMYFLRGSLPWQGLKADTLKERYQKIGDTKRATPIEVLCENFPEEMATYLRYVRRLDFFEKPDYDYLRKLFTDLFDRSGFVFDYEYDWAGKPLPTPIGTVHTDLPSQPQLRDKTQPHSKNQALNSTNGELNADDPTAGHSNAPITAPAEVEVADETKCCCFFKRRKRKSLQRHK

CCc1cc(Nc2nccc(-c3c(-c4ccc(OC)c(C(=O)Nc5c(F)cccc5F)c4)nc4ccccn34)n2)c(OC)cc1N1CCC(N2CCN(S(C)(=O)=O)CC2)CC1
% of inhibition [1]: 50%

CCN(CC)CCCCNc1ncc2cc(-c3cc(OC)cc(OC)c3)c(NC(=O)NC(C)(C)C)nc2n1
% of control [2]: 100%
% of control [3]: 100%

CN(C)C/C=C/C(=O)Nc1ccc(C(=O)N2CCCC(Nc3ncc(Cl)c(-c4c[nH]c5ccccc45)n3)C2)cc1 (configuration not stated)
% of control [4]: 77%

CN(C)CCOc1ccc(-c2nc(-c3ccncc3)c(-c3ccc4c(c3)CC/C4=N\O)[nH]2)cc1
% of control [5]: 19%

CNC(=O)Nc1ccc(-c2nc(N3CC4CCC(C3)O4)c3cnn(C4CCC5(CC4)OCCO5)c3n2)cc1
% of control [6]: 100%

N#Cc1cccc(-c2c[nH]c3ncnc(N4CCOCC4)c23)c1
% of control [7]: 100%

COCC(=O)NC/C=C/c1ccc2ncnc(Nc3ccc(Oc4ccc(C)nc4)c(C)c3)c2c1 [CP-724714]
% of control [8]: 80%
% of control [9]: 100%

Cc1cc([C@@H](C)Nc2ccccc2C(=O)O)c2nc(N3CCOCC3)cc(=O)n2c1 [AZD-6482]
% of control [10]: 94%

CC[C@@H]1[C@H](F)C(=O)N[C@@H]1COc1nccc2cc(C(N)=O)c(OC)cc12 [ZIMLOVISERTIB]
% of inhibition [11]: 8%
% of inhibition [12]: 0.9%
% of inhibition ([13]; at 0.01 µM): 7.8%
% of inhibition ([13]; at 0.04 µM): 5.4%
% of inhibition ([13]; at 0.2 µM): 9.3%
% of inhibition ([13]; at 1 µM): 18.4%
% of inhibition ([13]; at 5 µM): 34.3%
% of inhibition [14]: 64.8%
% of inhibition [15]: -16.4%

COc1cc(N(C)c2ccnc3ccc(C(F)(F)F)cc23)cc(OC)c1OC
% binding [16]: 89%
% binding [17]: 96%
% binding [18]: 100%
% binding [19]: 97%
% binding [20]: 80%

CCC(=O)N1CC[C@H](Nc2ncnc3c2CN(c2cnc(OC)c(C(F)(F)F)c2)CC3)C1 [LENIOLISIB]
IC50 (Insulin receptor): > 10 µM

Cn1cc(-n2cnc3c(NCc4nc5cc(Cl)c(Cl)cc5[nH]4)nc(N4CCOCC4)nc32)cn1
% of control (Focal adhesion kinase 1): 5.39%

Cc1cc(F)c(C(=O)Nc2cccc(-c3nncn3C(C)C)n2)cc1-n1cnc(C2CC2)c1
% of control [21]: 84%
